Reference: US6518278B1, “Carcinostatic substance for compatible administration, process of administrating same and process of rapidly inspecting same” (Debio Pharm S.A., priority 1994, dated 2003)
“Also recorded” adds a separate entry of the source.

Assays:
[1] = test system: cisplatin resistance cells (K652/CDDP); assay: Extinction rate, OR 36-3 and cisplatin, cisplatin resistance cells; type: cell-based, human; details: 5 μg/ml of the cisplatin, single; resistance cells versus K 562 parent cells
Description: (§1) The extinction rates were measured in accordance with the same procedures of Example 2 except that K 562 parent cells (human bone marrow leukemia) and its cisplatin resistance cells (K652/CDDP) were employed in place of the human leutecyte strain cell employed in Comparative Example 1 and Example 2, and cisplatin was employed in place of the vincristin.

[2] = test system: K 562 parent cells (human bone marrow leukemia); assay: Extinction rate, OR 36-3 and cisplatin, K 562 parent cells; type: cell-based; details: 2 μg/ml of the cisplatin, single
Description: as §1

[3] = test system: human leutecyte strain cell (RPMI-8402); assay: Extinction effect of compatible administration of l-OHP and a compatible agent on tumor cells (compatible efficiency OE); type: cell-based; details: for Compatible Effects of l-OHP and Compatible Agent, Simultaneous Administration: both added day 1
Method in brief: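 RPMI-8402 cells (10^6/ml, 15% fetal bovine serum) got l-OHP (5 or 1 μg/ml) with a partner agent at high or low dose (e.g. cisplatin 1 or 0.5, 5-FU 10 or 5 μg/ml; irinotecan fixed at 10 μg/ml) on the same day or staggered days 1–4 in either order. Cell kill was corrected for the untreated control. A combination index of 85–115% was scored additive, >115% synergistic.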

living cells [4] = details: dye bonded to the cell; inventor's earlier meeting article (1990); cited from earlier work
living cells [5] = assay: Fluorescence dye bonded to living cells: does the cell stay alive; type: cell-based
Source text: As the said fluorescence dye, the above DAPI can be employed. Although the DAPI itself is known, the use for the observation of the cell division while keeping the cells alive is unknown. The present inventors have investigated such fluorescence dye as Hoechst 33258, acridine orange and acridine yellow other than the DAPI.

[6] = larger dosage of compatible agent (μg/ml: cisplatin 1, 5-FU 10, irinotecane 10, adriamycin 0.05, vincristin 0.05, vindecin 0.05, etoposide 1, bleomycin 10, mitoxantrone 0.1, mitomycine 1), l-OHP 1 μg/ml (5 μg/ml with irinotecane) added day 1
[7] = larger dosage of compatible agent added day 1 (μg/ml: cisplatin 1, 5-FU 10, irinotecane 10, adriamycin 0.05, vincristin 0.05, vindecin 0.05, etoposide 1, bleomycin 10, mitoxantrone 0.1, mitomycine 1), l-OHP 1 μg/ml (5 μg/ml with irinotecane)
[8] = smaller dosage of compatible agent (μg/ml: cisplatin 0.5, 5-FU 5, irinotecane 10, adriamycin 0.01, vincristin 0.01, vindecin 0.01, etoposide 0.5, bleomycin 1, mitoxantrone 0.05, mitomycine 0.5), l-OHP 1 μg/ml added day 1
[9] = smaller dosage of compatible agent added day 1 (μg/ml: cisplatin 0.5, 5-FU 5, irinotecane 10, adriamycin 0.01, vincristin 0.01, vindecin 0.01, etoposide 0.5, bleomycin 1, mitoxantrone 0.05, mitomycine 0.5), l-OHP 1 μg/ml

**Q.** Which results are given for N.N.[Cl][Pt][Cl] [cisplatin]?
**A.** extinction rates against the parent cells and the resistance cells compared [1]: substantially the same as each other; extinction rate of the parent cells relative to that of the resistance cells [2]: about twice; compatible administration effect with l-OHP, summary in words ([3]; compatible administration with l-OHP): the additive effect or the synergistic effect regardless of the administration method and the dosage in almost all the cases; also recorded: synergistic effects can be obtained in all the cases when the cisplatin and the l-OHP are simultaneously administrated and the l-OHP is administrated before the cisplatin; also recorded: effect about twice the expected value is obtained in most cases when the l-OHP administration is preceded and the cisplatin is added later; Compatible Effects of l-OHP and Compatible Agent, Time Lag Administration, Addition Administration of Compatible Agent day 2 [3, 6]: • (•: Synergistic Effect); Compatible Effects of l-OHP and Compatible Agent, Time Lag Administration, Addition Administration of Compatible Agent day 3 [3, 6]: • (•: Synergistic Effect); Compatible Effects of l-OHP and Compatible Agent, Time Lag Administration, Addition Administration of Compatible Agent day 4 [3, 6]: • (•: Synergistic Effect); Compatible Effects of l-OHP and Compatible Agent, Simultaneous Administration ([3]; larger dosage of compatible agent (μg/ml: cisplatin 1, 5-FU 10, irinotecane 10, adriamycin 0.05, vincristin 0.05, vindecin 0.05, etoposide 1, bleomycin 10, mitoxantrone 0.1, mitomycine 1), l-OHP 1 μg/ml (5 μg/ml with irinotecane)): • (•: Synergistic Effect); Compatible Effects of l-OHP and Compatible Agent, Time Lag Administration, Addition Administration of l-OHP day 2 [3, 7]: • (•: Synergistic Effect); Compatible Effects of l-OHP and Compatible Agent, Time Lag Administration, Addition Administration of l-OHP day 3 [3, 7]: ◯ (◯: Additive Effect); Compatible Effects of l-OHP and Compatible Agent, Time Lag Administration, Addition Administration of l-OHP day 4 [3, 7]: ◯ (◯: Additive Effect); Compatible Effects of l-OHP and Compatible Agent, Time Lag Administration, Addition Administration of Compatible Agent day 2 [3, 8]: • (•: Synergistic Effect); Compatible Effects of l-OHP and Compatible Agent, Time Lag Administration, Addition Administration of Compatible Agent day 3 [3, 8]: • (•: Synergistic Effect); Compatible Effects of l-OHP and Compatible Agent, Time Lag Administration, Addition Administration of Compatible Agent day 4 [3, 8]: • (•: Synergistic Effect); Compatible Effects of l-OHP and Compatible Agent, Simultaneous Administration ([3]; smaller dosage of compatible agent (μg/ml: cisplatin 0.5, 5-FU 5, irinotecane 10, adriamycin 0.01, vincristin 0.01, vindecin 0.01, etoposide 0.5, bleomycin 1, mitoxantrone 0.05, mitomycine 0.5), l-OHP 1 μg/ml): ◯ (◯: Additive Effect); Compatible Effects of l-OHP and Compatible Agent, Time Lag Administration, Addition Administration of l-OHP day 2 [3, 9]: Δ (Δ: Below Additive Effect); Compatible Effects of l-OHP and Compatible Agent, Time Lag Administration, Addition Administration of l-OHP day 3 [3, 9]: Δ (Δ: Below Additive Effect); Compatible Effects of l-OHP and Compatible Agent, Time Lag Administration, Addition Administration of l-OHP day 4 [3, 9]: Δ (Δ: Below Additive Effect)

**Q.** With Cl.Cl.N=C(N)c1ccc(-c2cc3ccc(C(=N)N)cc3[nH]2)cc1 [DAPI, 4′,6-diamidino-2-phenylindole•2HCl] as the compound, how does the “effect of fluorescence dye on living cells” value (living cells [4]) read?
**A.** without extinguishing the cells

**Q.** Which “toxicity of fluorescence dye to the cell” value (living cells [5]) does the source give for CN(C)c1ccc2cc3ccc(N(C)C)cc3nc2c1 [acridine orange] here?
**A.** toxicity is too strong to keep the cell alive

**Q.** With Cc1cc2cc3cc(C)c(N)cc3nc2cc1N [acridine yellow] as the compound, how does the “toxicity of fluorescence dye to the cell” value (living cells [5]) read?
**A.** toxicity is too strong to keep the cell alive
